Here are results for 21 molecules from patent US9290451B2 (Hoffmann-La Roche Inc., priority 2011, dated 2016).

Assay [1] has as its target human CB2 receptors (Homo sapiens (Human), UniProt P34972). The assay can be described thus: cAMP assay, CHO cells expressing human CB2 receptors. The assay is classed as cell-based. The gist of the method:
(§1)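 In this cellular cAMP test, IBMX (1 mM) blocked phosphodiesterase during a 30-min, 30 °C compound exposure. Accumulated cAMP was measured by a lysis-based TR-FRET kit and interpolated from a standard curve to give EC50.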
In general terms: Changes in cAMP serve as a functional read-out for many G protein-coupled receptors.

Assay [2] deals with human CB1 receptors (Homo sapiens (Human), UniProt P21554). The assay can be described thus: cAMP assay, CHO cells expressing human CB1 receptors. The assay is classed as cell-based. The gist of the method: as §1
Setting [3] is: CHO cells expressing human CB2, cAMP, read-out: human CB2 EC50.
The mark [4] stands for this setting: CHO cells expressing human CB1, cAMP, read-out: human CB1 EC50.

Molecules are shown by their SMILES. pEC50: −log10 of the molar value. Where two headings read alike, the source gives them in different places. A value given as a limit tells only on which side of the number the result lay.

By pEC50 is commonly meant −log10 of the EC50, conventionally taken in molar units.

Sequence of human CB2 receptors (P34972 whole entry): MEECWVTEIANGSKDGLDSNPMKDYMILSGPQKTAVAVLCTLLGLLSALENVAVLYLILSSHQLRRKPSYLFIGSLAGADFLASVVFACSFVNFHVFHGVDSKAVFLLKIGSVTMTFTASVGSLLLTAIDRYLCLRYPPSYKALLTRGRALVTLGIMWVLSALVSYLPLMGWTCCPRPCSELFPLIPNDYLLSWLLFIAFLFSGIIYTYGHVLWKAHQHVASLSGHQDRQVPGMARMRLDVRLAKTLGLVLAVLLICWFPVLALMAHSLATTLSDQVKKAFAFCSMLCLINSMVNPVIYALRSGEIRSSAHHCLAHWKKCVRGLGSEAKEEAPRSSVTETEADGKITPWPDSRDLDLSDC
Sequence of human CB1 receptors (P21554 whole entry): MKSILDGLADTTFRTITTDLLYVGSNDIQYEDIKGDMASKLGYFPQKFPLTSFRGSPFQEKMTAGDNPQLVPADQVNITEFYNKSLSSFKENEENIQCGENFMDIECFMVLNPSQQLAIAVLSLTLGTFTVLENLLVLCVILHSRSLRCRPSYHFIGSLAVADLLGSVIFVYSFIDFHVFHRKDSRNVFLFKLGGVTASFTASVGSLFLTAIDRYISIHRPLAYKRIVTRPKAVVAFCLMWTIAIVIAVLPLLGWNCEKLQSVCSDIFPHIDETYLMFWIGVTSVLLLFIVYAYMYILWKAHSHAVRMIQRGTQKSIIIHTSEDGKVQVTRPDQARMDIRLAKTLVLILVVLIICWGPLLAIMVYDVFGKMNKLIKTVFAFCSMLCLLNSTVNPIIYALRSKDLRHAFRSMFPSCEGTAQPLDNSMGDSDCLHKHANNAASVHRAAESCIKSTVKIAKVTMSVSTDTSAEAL

For `CCOC(=O)C(CC)(CC)NC(=O)c1ccc(C2CC2)c(S(=O)(=O)CC(C)C)n1` [Example 360, 2-{[5-Cyclopropyl-6-(2-methyl-propane-1-sulfonyl)-pyridine-2-carbonyl]-amino}-2-ethyl-butyric acid ethyl ester], the values for the negative logarithm of the EC50 (pEC50) in assay [1] (setting [3]) and in assay [2] (setting [4]) were 8.62 and 7.05, respectively.

For the molecule `CNC(=O)[C@H](CC(C)(C)C)NC(=O)c1ccc(C2CC2)c(S(=O)(=O)CC(C)C)n1` [Example 361, 5-Cyclopropyl-6-(2-methyl-propane-1-sulfonyl)-pyridine-2-carboxylic acid ((S)-3,3-dimethyl-1-methylcarbamoyl-butyl)-amide], the values for the negative logarithm of the EC50 (pEC50) in assay [1] (setting [3]) and in assay [2] (setting [4]) were 7.37 and less than 5.00, respectively.

Turning to `O=C(N[C@H]1CCOC1=O)c1ccc(C2CC2)c(OCC2CC2)n1` [Example 362, 5-Cyclopropyl-6-cyclopropylmethoxy-pyridine-2-carboxylic acid ((S)-2-oxo-tetrahydro-furan-3-yl)-amide], the pEC50 was 6.36 in assay [1] (setting [3]) and less than 5.00 in assay [2] (setting [4]).

As to `CC(C)(C)OC(=O)N(CC1CC1)NC(=O)c1ccc(C2CC2)c(OCC2CC2)n1` [Example 363, N′-(5-Cyclopropyl-6-cyclopropylmethoxy-pyridine-2-carbonyl)-N-cyclopropylmethyl-hydrazinecarboxylic acid tert-butyl ester], the pEC50 in assay [1] (setting [3]) is 7.42; in assay [2] (setting [4]) it was less than 5.00.

On to `CNC(=O)[C@@H](NC(=O)c1ccc(C2CC2)c(S(=O)(=O)CC(C)C)n1)C(C)(C)C` [Example 364, 5-Cyclopropyl-6-(2-methyl-propane-1-sulfonyl)-pyridine-2-carboxylic acid ((S)-2,2-dimethyl-1-methylcarbamoyl-propyl)-amide], for which the pEC50 in assay [1] was 7.89; in assay [2], less than 5.00.

As to `CC(C)CS(=O)(=O)c1nc(C(=O)N[C@@H](c2cccnc2)C(F)(F)F)ccc1C1CC1` [Example 365, 5-Cyclopropyl-6-(2-methyl-propane-1-sulfonyl)-pyridine-2-carboxylic acid ((S)-2,2,2-trifluoro-1-pyridin-3-yl-ethyl)-amide], the pEC50 in assay [1] (setting [3]) was 7.86; in assay [2] (setting [4]) it was less than 5.00.

Consider `CC(C)C[C@H](NC(=O)c1ccc(C2CC2)c(OCC2CC2)n1)C(=O)OC(C)(C)C` [Example 366, (S)-2-[(5-Cyclopropyl-6-cyclopropylmethoxy-pyridine-2-carbonyl)-amino]-4-methyl-pentanoic acid tert-butyl ester], for which the pEC50 was 7.58 in assay [1] (setting [3]) and less than 5.00 in assay [2] (setting [4]).

In the case of `CCC(CC)(NC(=O)c1ccc(C2CC2)c(S(=O)(=O)CC(C)C)n1)C(=O)NC` [Example 367, 5-Cyclopropyl-6-(2-methyl-propane-1-sulfonyl)-pyridine-2-carboxylic acid (1-ethyl-1-methylcarbamoyl-propyl)-amide], the negative logarithm of the EC50 (pEC50) was 6.71 in assay [1] (setting [3]) and less than 5.00 in assay [2] (setting [4]).

Take `CC(C)(C)NC(=O)c1ccc(C2CC2)c(OCC2CC2)n1` [Example 368, 5-Cyclopropyl-6-cyclopropylmethoxy-pyridine-2-carboxylic acid tert-butylamide]: the pEC50 was 7.58 in assay [1] (setting [3]) and less than 5.00 in assay [2] (setting [4]).

For `CC(C)(C)NC(=O)c1ccc(C2CC2)c(OCC2CCCO2)n1` (stereo not drawn) [Example 369, 5-Cyclopropyl-6-(tetrahydro-furan-2-ylmethoxy)-pyridine-2-carboxylic acid tert-butylamide], the results for the pEC50 in assay [1] (setting [3]) and in assay [2] (setting [4]) were 7.92 and less than 5.00, respectively.

On to `CC1(NC(=O)c2ccc(N3CC(F)(F)C3)c(OCC3CC3)n2)COC1` [Example 370, 6-Cyclopropylmethoxy-5-(3,3-difluoro-azetidin-1-yl)-pyridine-2-carboxylic acid (3-methyl-oxetan-3-yl)-amide], for which the pEC50 in assay [1] (setting [3]) is 7.02; in assay [2] (setting [4]), less than 5.00.

For `O=C(NN1CCCOC1=O)c1ccc(C2CC2)c(OCC2CC2)n1` [Example 371, 5-Cyclopropyl-6-cyclopropylmethoxy-pyridine-2-carboxylic acid (2-oxo-[1,3]oxazinan-3-yl)-amide], the pEC50 in assay [1] (setting [3]) was 6.36; in assay [2] (setting [4]), less than 5.00.

As to `CC(C)C[C@H](NC(=O)c1ccc(C2CC2)c(OC(C)C(F)(F)F)n1)C(N)=O` (stereo partly drawn) [Example 372, 5-Cyclopropyl-6-(2,2,2-trifluoro-1-methyl-ethoxy)-pyridine-2-carboxylic acid ((S)-1-carbamoyl-3-methyl-butyl)-amide], the results for the negative-log EC50 (pEC50) in assay [1] and in assay [2] were 7.27 and less than 5.00, respectively.

Turning to `Cc1nc(C(C)(C)NC(=O)c2ccc(C3CC3)c(OC(C)C(F)(F)F)n2)no1` (stereo not drawn) [Example 373, 5-Cyclopropyl-6-(2,2,2-trifluoro-1-methyl-ethoxy)-pyridine-2-carboxylic acid [1-methyl-1-(5-methyl-[1,2,4]oxadiazol-3-yl)-ethyl]-amide], the pEC50 in assay [1] (setting [3]) was 6.90; in assay [2] (setting [4]), less than 5.00.

As for `NC(=O)[C@@H](NC(=O)c1ccc(C2CC2)c(OCC2CC2)n1)C1CC1` [Example 374, 5-Cyclopropyl-6-cyclopropylmethoxy-pyridine-2-carboxylic acid ((+)-carbamoyl-cyclopropyl-methyl)-amide], the negative logarithm of the EC50 (pEC50) in assay [1] (setting [3]) was 7.55; in assay [2] (setting [4]) it was less than 5.00.

As for `NC(=O)[C@H](NC(=O)c1ccc(C2CC2)c(OCC2CC2)n1)C1CC1` [Example 375, 5-Cyclopropyl-6-cyclopropylmethoxy-pyridine-2-carboxylic acid ((−)-carbamoyl-cyclopropyl-methyl)-amide], the figures for the pEC50 in assay [1] (setting [3]) and in assay [2] (setting [4]) were 6.45 and less than 5.00, respectively.

On to `NC(=O)[C@@H](NC(=O)c1ccc(N2CC(F)(F)C2)c(OCC2CC2)n1)C1CC1` [Example 376, 6-Cyclopropylmethoxy-5-(3,3-difluoro-azetidin-1-yl)-pyridine-2-carboxylic acid ((+)-carbamoyl-cyclopropyl-methyl)-amide], for which the pEC50 in assay [1] (setting [3]) is 7.23; in assay [2] (setting [4]), less than 5.00.

Turning to `NC(=O)[C@H](NC(=O)c1ccc(N2CC(F)(F)C2)c(OCC2CC2)n1)C1CC1` [Example 377, 6-Cyclopropylmethoxy-5-(3,3-difluoro-azetidin-1-yl)-pyridine-2-carboxylic acid ((−)-carbamoyl-cyclopropyl-methyl)-amide], the pEC50 in assay [1] (setting [3]) was 6.75; in assay [2] (setting [4]), less than 5.00.

As to `O=C(NC1(C(F)(F)F)CC1)c1ccc(N2CC(F)(F)C2)c(OCC2CC2)n1` [Example 378, 6-Cyclopropylmethoxy-5-(3,3-difluoro-azetidin-1-yl)-pyridine-2-carboxylic acid (1-trifluoromethyl-cyclopropyl)-amide], the pEC50 in assay [1] (setting [3]) is 8.19; in assay [2] (setting [4]), less than 5.00.

As for `Cc1nc([C@](C)(NC(=O)c2ccc(C3CC3)c(S(=O)(=O)CC(C)C)n2)C2CC2)no1` [Example 381, (+)-5-Cyclopropyl-6-(2-methyl-propane-1-sulfonyl)-pyridine-2-carboxylic acid [1-cyclopropyl-1-(5-methyl-[1,2,4]oxadiazol-3-yl)-ethyl]-amide], the pEC50 in assay [1] (setting [3]) is 7.94; in assay [2] (setting [4]), 6.62.

Consider `Cc1nc([C@@](C)(NC(=O)c2ccc(C3CC3)c(S(=O)(=O)CC(C)C)n2)C2CC2)no1` [Example 382, (−)-5-Cyclopropyl-6-(2-methyl-propane-1-sulfonyl)-pyridine-2-carboxylic acid [1-cyclopropyl-1-(5-methyl-[1,2,4]oxadiazol-3-yl)-ethyl]-amide], for which the figures for the pEC50 in assay [1] (setting [3]) and in assay [2] (setting [4]) were 7.29 and less than 5.00, respectively.
